# Assay results taken from patent US9663496B2, “AMPK-activating heterocyclic compounds and methods for using the same” (Rigel Pharmaceuticals, Inc., priority 2010, dated 2017).
# Target: AMPK
# Experiment: AMPK activation, enzyme-linked immunosorbent assay
# Type: biochemical
# Details: EC50 for AMPK activation, ELISA
# Protocol: Compounds were assayed for their ability to activate AMPK using an enzyme-linked immunosorbent assay. Reagents and procedures for measuring AMPK activation are well known and kits for AMPK activation assays are commercially available.
row,Compound,EC50
1,"O=C(NC1CCN(CC2CCCCC2)CC1)c1ccc(C(=O)N2CCN(Cc3ccc(F)cc3)CC2)cn1 [Compound 13, N-(1-(cyclohexylmethyl)piperidin-4-yl)-5-(4-(4-fluorobenzyl)piperazine-1-carbonyl)picolinamide]",1 to 5 µM
2,"N#Cc1ccc(CN2CCC3(CCN(C(=O)c4ccc(C(=O)N5CCN(Cc6ccc(F)cc6)CC5)cn4)CC3)C2)cc1 [Compound 15, 4-((8-(5-(4-(4-fluorobenzyl)piperazine-1-carbonyl)picolinoyl)-2,8-diazaspiro[4.5]decan-2-yl)methyl)benzonitrile]",1 to 5 µM
3,"O=C(c1ccc(Nc2ccc(Oc3ccccc3)cc2)nc1)N1CCN(Cc2ccc(F)cc2)CC1 [Compound 34, (4-(4-fluorobenzyl)piperazin-1-yl)(6-(4-phenoxyphenylamino)pyridin-3-yl)methanone]",1 to 5 µM
4,"O=C(c1ccc(Nc2ccc(-c3ccccc3)cc2)nc1)N1CCN(Cc2ccc(F)cc2)CC1 [Compound 37, (6-(4-phenylphenylamino)pyridin-3-yl)(4-(4-fluorobenzyl)piperazin-1-yl)methanone]",5 to 10 µM
5,"O=C(c1ccc(C(=O)N2CCN(Cc3ccccc3)CC2)nc1)N1CCN(Cc2ccccc2)CC1 [Compound 73, pyridine-2,5-diylbis((4-benzylpiperazin-1-yl)methanone)]",5 to 10 µM
6,"N#Cc1ccc(CN2CCC(NC(=O)c3ccc(C(=O)N4CCN(C(=O)c5ccc(C(=O)NC6CCN(Cc7ccc(C#N)cc7)CC6)nc5)CC4)cn3)CC2)cc1 [Compound 75, 5,5′-(piperazine-1,4-diylbis(oxomethylene)) bis(N-(1-(4-cyanobenzyl)piperidin-4-yl)picolinamide)]",1 to 5 µM
7,"N#Cc1ccc(CN2CCC(NC(=O)c3ccc(C(=O)N4CCN(C(=O)c5ccccc5)CC4)cn3)CC2)cc1 [Compound 80, 5-(4-benzoylpiperazine-1-carbonyl)-N-(1-(4-cyanobenzyl)piperidin-4-yl)picolinamide]",1 to 5 µM
8,"N#Cc1ccc(CN2CCC(NC(=O)c3ccc(C(=O)N4CCN(S(=O)(=O)c5ccccc5)CC4)cn3)CC2)cc1 [Compound 82, N-(1-(4-cyanobenzyl)piperidin-4-yl)-5-(4-(phenylsulfonyl)piperazine-1-carbonyl)picolinamide]",0.5 to 1 µM
9,"N#Cc1ccc(CN2CCC(NC(=O)c3ccc(C(=O)N4CCN(C5CCOCC5)CC4)cn3)CC2)cc1 [Compound 83, N-(1-(4-cyanobenzyl)piperidin-4-yl)-5-(4-(tetrahydro-2H-pyran-4-yl)piperazine-1-carbonyl)picolinamide]",> 10 µM
10,"CC(C)N1CCN(C(=O)c2ccc(C(=O)NC3CCN(Cc4ccc(C#N)cc4)CC3)nc2)CC1 [Compound 84, N-(1-(4-cyanobenzyl)piperidin-4-yl)-5-(4-isopropylpiperazine-1-carbonyl)picolinamide]",1 to 5 µM
11,"Cc1cc(CN2CCN(C(=O)c3ccc(C(=O)NC4CCN(Cc5ccccc5)CC4)nc3)CC2)no1 [Compound 85, N-(1-benzylpiperidin-4-yl)-5-(4-((5-methylisoxazol-3-yl)methyl)piperazine-1-carbonyl)picolinamide]",1 to 5 µM
12,"N#Cc1ccc(CN2CCC(NC(=O)c3cccc(C(=O)NC4CCN(Cc5ccc(C#N)cc5)CC4)n3)CC2)cc1 [Compound 86, N2,N6-bis(1-(4-cyanobenzyl)piperidin-4-yl)pyridine-2,6-dicarboxamide]",1 to 5 µM
13,"O=C(NC1CCN(Cc2ccc(F)cc2)CC1)c1cccc(C(=O)NC2CCN(Cc3ccc(F)cc3)CC2)n1 [Compound 87, N2,N6-bis(1-(4-fluorobenzyl)piperidin-4-yl)pyridine-2,6-dicarboxamide]",1 to 5 µM
14,"O=C(c1ccc(C(=O)N2CCN(CCc3ccccc3)CC2)nc1)N1CCN(Cc2ccc(F)cc2)CC1 [Compound 88, (4-(4-fluorobenzyl)piperazin-1-yl)(6-(4-phenethylpiperazine-1-carbonyl)pyridin-3-yl)methanone]",1 to 5 µM
15,"N#Cc1ccc(CN2CCC(NC(=O)c3ccc(C(=O)N4CCN(C(=O)C5CCCCC5)CC4)cn3)CC2)cc1 [Compound 89, N-(1-(4-cyanobenzyl)piperidin-4-yl)-5-(4-(cyclohexanecarbonyl)piperazine-1-carbonyl)picolinamide]",1 to 5 µM
16,"O=C(c1ccc(C(=O)N2CCN(CCc3ccccc3)CC2)nc1)N1CCN(c2ccccc2)CC1 [Compound 90, (4-phenethylpiperazin-1-yl)(5-(4-phenylpiperazine-1-carbonyl)pyridin-2-yl)methanone]",> 10 µM
17,"CC(C)N1CCN(C(=O)c2ccc(C(=O)N3CCN(CCc4ccccc4)CC3)nc2)CC1 [Compound 91, (4-isopropylpiperazin-1-yl)(6-(4-phenethylpiperazine-1-carbonyl)pyridin-3-yl)methanone]",> 10 µM
18,"O=C(c1ccc(C(=O)N2CCN(CCc3ccccc3)CC2)nc1)N1CCN(CCc2ccccc2)CC1 [Compound 92, pyridine-2,5-diylbis((4-phenethylpiperazin-1-yl)methanone)]",> 10 µM
19,"O=C(c1cccc(C(=O)N2CCN(Cc3ccc(F)cc3)CC2)n1)N1CCN(CCc2ccccc2)CC1 [Compound 93, (4-(4-fluorobenzyl)piperazin-1-yl)(6-(4-phenethylpiperazine-1-carbonyl)pyridin-2-yl)methanone]",> 10 µM
20,"O=C(c1cccc(C(=O)N2CCN(c3ccccc3)CC2)n1)N1CCN(Cc2ccc(F)cc2)CC1 [Compound 94, (4-(4-fluorobenzyl)piperazin-1-yl)(6-(4-phenylpiperazine-1-carbonyl)pyridin-2-yl)methanone]",> 10 µM
21,"O=C(NC1CCN(Cc2ccccc2)CC1)c1ccc(C(=O)N2CCN(c3ccncc3)CC2)cn1 [Compound 96, N-(1-benzylpiperidin-4-yl)-5-(4-(pyridin-4-yl)piperazine-1-carbonyl)picolinamide]",> 10 µM
22,"O=C(NC1CCN(Cc2ccccc2)CC1)c1ccc(C(=O)N2CCN(c3ccccc3)CC2)cn1 [Compound 97, N-(1-benzylpiperidin-4-yl)-5-(4-phenylpiperazine-1-carbonyl)picolinamide]",1 to 5 µM
23,"CCOC(=O)C(c1ccccc1)N1CCC(NC(=O)c2ccc(C(=O)N3CCN(Cc4ccc(F)cc4)CC3)cn2)CC1 (stereo not shown) [Compound 98, ethyl 2-(4-(5-(4-(4-fluorobenzyl)piperazine-1-carbonyl)picolinamido)piperidin-1-yl)-2-phenylacetate]",1 to 5 µM
24,"N#Cc1ccc(CC2CCC(NC(=O)c3cccc(C(=O)N4CCN(Cc5ccc(F)cc5)CC4)n3)CC2)cc1 (stereo not shown) [Compound 99, N-(4-(4-cyanobenzyl)cyclohexyl)-6-(4-(4-fluorobenzyl)piperazine-1-carbonyl)picolinamide]",5 to 10 µM

# Results, then the compound that gave them:
row,EC50,Compound
1,0.5 to 1 µM,"O=C(Nc1ccc(Br)cc1)c1ccc(C(=O)N2CCN(Cc3ccc(F)cc3)CC2)cn1 [Compound 28, N-(4-bromophenyl)-5-(4-(4-fluorobenzyl)piperazine-1-carbonyl)picolinamide]"
2,< 0.5 µM,"N#Cc1ccc(CN2CCC3(CC2)CCN(c2ccc(C(=O)N4CCN(Cc5ccc(F)cc5)CC4)cn2)C3)cc1 [Compound 31, 4-((2-(5-(4-(4-fluorobenzyl)piperazine-1-carbonyl)pyridin-2-yl)-2,8-diazaspiro[4.5]decan-8-yl)methyl)benzonitrile]"
3,< 0.5 µM,"O=C(NC1CCN(Cc2ccc(Cl)cc2)CC1)c1ccc(C(=O)N2CCN(Cc3ccc(F)cc3)CC2)cn1 [Compound 52, N-(1-(4-chlorobenzyl)piperidin-4-yl)-5-(4-(4-fluorobenzyl)piperazine-1-carbonyl)picolinamide]"
4,< 0.5 µM,"COc1ccc(Oc2ccc(NC(=O)c3ccc(C(=O)N4CCN(Cc5ccc(F)cc5)CC4)cn3)cc2)cc1 [Compound 54, 5-(4-(4-fluorobenzyl)piperazine-1-carbonyl)-N-(4-(4-methoxyphenoxy)phenyl)picolinamide]"
5,< 0.5 µM,"O=C(NC1CCN(Cc2ccccc2)CC1)c1ccc(C(=O)N2CCN(Cc3ccccc3)CC2)cn1 [Compound 72, 5-(4-benzylpiperazine-1-carbonyl)-N-(1-benzylpiperidin-4-yl)picolinamide]"
6,< 0.5 µM,"O=C(NC1CCN(Cc2ccccc2)CC1)c1ccc(C(=O)N2CCN(Cc3ccccc3)CC2)nc1 [Compound 74, 6-(4-benzylpiperazine-1-carbonyl)-N-(1-benzylpiperidin-4-yl)nicotinamide]"
7,< 0.5 µM,"N#Cc1ccc(CN2CCC(NC(=O)c3ccc(C(=O)N4CCN(C(=O)c5ccc(F)cc5)CC4)cn3)CC2)cc1 [Compound 76, N-(1-(4-cyanobenzyl)piperidin-4-yl)-5-(4-(4-fluorobenzoyl)piperazine-1-carbonyl)picolinamide]"
8,< 0.5 µM,"COc1ccc(C(=O)N2CCN(C(=O)c3ccc(C(=O)NC4CCN(Cc5ccc(C#N)cc5)CC4)nc3)CC2)cc1 [Compound 77, N-(1-(4-cyanobenzyl)piperidin-4-yl)-5-(4-(4-methoxybenzoyl)piperazine-1-carbonyl)picolinamide]"
9,< 0.5 µM,"N#Cc1ccc(CN2CCC(NC(=O)c3ccc(C(=O)N4CCN(S(=O)(=O)c5ccc(F)cc5)CC4)cn3)CC2)cc1 [Compound 78, N-(1-(4-cyanobenzyl)piperidin-4-yl)-5-(4-(4-fluorophenylsulfonyl)piperazine-1-carbonyl)picolinamide]"
10,0.5 to 1 µM,"COc1ccc(S(=O)(=O)N2CCN(C(=O)c3ccc(C(=O)NC4CCN(Cc5ccc(C#N)cc5)CC4)nc3)CC2)cc1 [Compound 79, N-(1-(4-cyanobenzyl)piperidin-4-yl)-5-(4-(4-methoxyphenylsulfonyl)piperazine-1-carbonyl)picolinamide]"
11,0.5 to 1 µM,"CC(C)(C)C(=O)N1CCN(C(=O)c2ccc(C(=O)NC3CCN(Cc4ccc(C#N)cc4)CC3)nc2)CC1 [Compound 81, N-(1-(4-cyanobenzyl)piperidin-4-yl)-5-(4-pivaloylpiperazine-1-carbonyl)picolinamide]"
12,< 0.5 µM,"N#Cc1ccc(CN2CCC(NC(=O)c3ccc(C(=O)N4CCN(CC5CCCCC5)CC4)cn3)CC2)cc1 [Compound 95, N-(1-(4-cyanobenzyl)piperidin-4-yl)-5-(4-(cyclohexylmethyl)piperazine-1-carbonyl)picolinamide]"
13,< 0.5 µM,N#Cc1ccc(CN2CC[C@@H](NC(=O)c3ccc(C(=O)N4CCN(Cc5ccc(F)cc5)CC4)cn3)[C@@H](F)C2)cc1 [Compound 100]
